Laboratory results: the NIST ThermoML archive (doi:10.1021/acs.jced.7b00429)

Assay: xn = mol fraction of the nth substance listed
Conditions: 100 kPa, Liquid; for viscosity: Falling or rolling sphere viscometry; for speed of sound: Frequency=3 MHz, Single path-length method; for mass density: Vibrating tube method

CCn1cc[n+](C)c1.O=S(=O)([O-])C(F)(F)F [1-ethyl-3-methylimidazolium trifluoromethanesulfonate] + C[S+](C)[O-]
Conditions	mass density [kg/m3]	speed of sound [m/s]	viscosity [mPa·s]
298.15 K, x1 = 0.1068	1168.75	1488	3.65
298.15 K, x1 = 0.2015	1216.25	1477.1	5.35
298.15 K, x1 = 0.3077	1256.63	1468.6	7.89
298.15 K, x1 = 0.4023	1284.76	1462.5	11.82
298.15 K, x1 = 0.4933	1306.53	1456.5	16.26
298.15 K, x1 = 0.6022	1328.03	1453	21.05
298.15 K, x1 = 0.6993	1344	1449.9	26.12
298.15 K, x1 = 0.7929	1357.15	1445.6	31.96
298.15 K, x1 = 0.9008	1370.28	1441.2	38.88
298.15 K, x1 = 1	1379.91	1436	45.67
303.15 K, x1 = 0.1068	1164	1472.7	3.26
303.15 K, x1 = 0.2015	1211.78	1462.7	4.72
303.15 K, x1 = 0.3077	1252.35	1454.9	6.9
303.15 K, x1 = 0.4023	1280.52	1449.4	10.2
303.15 K, x1 = 0.4933	1302.34	1443.8	13.93
303.15 K, x1 = 0.6022	1323.93	1440.6	17.95
303.15 K, x1 = 0.6993	1339.92	1437.8	22.18
303.15 K, x1 = 0.7929	1353.08	1433.9	27.03
303.15 K, x1 = 0.9008	1366.19	1430	32.74
303.15 K, x1 = 1	1375.71	1425.4	38.31
308.15 K, x1 = 0.1068	1159.28	1457.5	2.94
308.15 K, x1 = 0.2015	1207.5	1448.3	4.2
308.15 K, x1 = 0.3077	1248.17	1441.2	6.08
308.15 K, x1 = 0.4023	1276.4	1436.4	8.91
308.15 K, x1 = 0.4933	1298.26	1431.3	12.06
308.15 K, x1 = 0.6022	1319.96	1428.4	15.48
308.15 K, x1 = 0.6993	1335.83	1425.8	19.05
308.15 K, x1 = 0.7929	1349.06	1422.3	23.08
308.15 K, x1 = 0.9008	1362.09	1418.7	27.81
308.15 K, x1 = 1	1371.51	1414.3	32.38
313.15 K, x1 = 0.1068	1154.49	1442.4	2.66
313.15 K, x1 = 0.2015	1203.23	1434	3.76
313.15 K, x1 = 0.3077	1243.91	1427.7	5.42
313.15 K, x1 = 0.4023	1272.21	1423.5	7.85
313.15 K, x1 = 0.4933	1294.19	1418.8	10.52
313.15 K, x1 = 0.6022	1315.98	1416.5	13.47
313.15 K, x1 = 0.6993	1331.89	1414	16.52
313.15 K, x1 = 0.7929	1345.04	1410.8	19.91
313.15 K, x1 = 0.9008	1358.06	1407.4	23.88
313.15 K, x1 = 1	1367.36	1403	27.68
318.15 K, x1 = 0.1068	1149.74	1425.5	2.42
318.15 K, x1 = 0.2015	1198.95	1419.8	3.39
318.15 K, x1 = 0.3077	1239.74	1414.3	4.85
318.15 K, x1 = 0.4023	1268.06	1410.8	6.96
318.15 K, x1 = 0.4933	1290.23	1406.5	9.26
318.15 K, x1 = 0.6022	1312.02	1404.5	11.82
318.15 K, x1 = 0.6993	1327.93	1401.9	14.45
318.15 K, x1 = 0.7929	1341	1399.5	17.32
318.15 K, x1 = 0.9008	1353.95	1396.5	20.68
318.15 K, x1 = 1	1363.21	1392.7	23.86
323.15 K, x1 = 0.1068	1144.99	1410.4	2.22
323.15 K, x1 = 0.2015	1194.68	1405.7	3.08
323.15 K, x1 = 0.3077	1235.66	1401	4.37
323.15 K, x1 = 0.4023	1263.96	1398.1	6.22
323.15 K, x1 = 0.4933	1286.19	1394.3	8.23
323.15 K, x1 = 0.6022	1307.97	1392.7	10.45
323.15 K, x1 = 0.6993	1323.95	1390.7	12.72
323.15 K, x1 = 0.7929	1337.02	1388.2	15.19
323.15 K, x1 = 0.9008	1349.9	1385.5	18.05
323.15 K, x1 = 1	1359.07	1381.7	20.75

C[S+](C)[O-] [dimethyl sulfoxide] + CC#N
Conditions	mass density [kg/m3]	speed of sound [m/s]	viscosity [mPa·s]
298.15 K, x1 = 0.0995	820.43	1299.5	0.42
298.15 K, x1 = 0.2061	862.88	1322.6	0.52
298.15 K, x1 = 0.2936	896.29	1346.2	0.57
298.15 K, x1 = 0.4055	935.15	1372	0.72
298.15 K, x1 = 0.5051	966.82	1395.1	0.86
298.15 K, x1 = 0.6001	994.77	1415.8	1.06
298.15 K, x1 = 0.7006	1022.53	1439.2	1.27
298.15 K, x1 = 0.8072	1050.32	1460.8	1.54
298.15 K, x1 = 0.8947	1071.95	1480.9	1.76
298.15 K, x1 = 1	1095.62	1490.5	2.03
303.15 K, x1 = 0.0995	815.06	1280.1	0.4
303.15 K, x1 = 0.2061	857.6	1303.8	0.49
303.15 K, x1 = 0.2936	891.05	1327.8	0.53
303.15 K, x1 = 0.4055	929.99	1354.1	0.67
303.15 K, x1 = 0.5051	961.71	1377.5	0.81
303.15 K, x1 = 0.6001	989.72	1398.5	0.97
303.15 K, x1 = 0.7006	1017.55	1422.2	1.17
303.15 K, x1 = 0.8072	1045.34	1443.9	1.42
303.15 K, x1 = 0.8947	1066.98	1464	1.6
303.15 K, x1 = 1	1090.62	1473.6	1.84
308.15 K, x1 = 0.0995	809.67	1260.6	0.39
308.15 K, x1 = 0.2061	852.28	1285	0.46
308.15 K, x1 = 0.2936	885.81	1309.9	0.52
308.15 K, x1 = 0.4055	924.82	1336.2	0.64
308.15 K, x1 = 0.5051	956.58	1360	0.75
308.15 K, x1 = 0.6001	984.67	1381.3	0.91
308.15 K, x1 = 0.7006	1012.57	1405.2	1.08
308.15 K, x1 = 0.8072	1040.36	1427	1.29
308.15 K, x1 = 0.8947	1062.01	1447.2	1.47
308.15 K, x1 = 1	1085.61	1456.8	1.67
313.15 K, x1 = 0.0995	804.26	1241.2	0.37
313.15 K, x1 = 0.2061	846.95	1266.1	0.44
313.15 K, x1 = 0.2936	880.52	1291	0.49
313.15 K, x1 = 0.4055	919.62	1318.8	0.6
313.15 K, x1 = 0.5051	951.43	1342.5	0.71
313.15 K, x1 = 0.6001	979.59	1364.1	0.85
313.15 K, x1 = 0.7006	1007.58	1388	1
313.15 K, x1 = 0.8072	1035.36	1410.3	1.19
313.15 K, x1 = 0.8947	1057.03	1431	1.35
313.15 K, x1 = 1	1080.6	1440	1.53
318.15 K, x1 = 0.0995	798.81	1221.8	0.35
318.15 K, x1 = 0.2061	841.59	1247.4	0.42
318.15 K, x1 = 0.2936	875.23	1272.7	0.47
318.15 K, x1 = 0.4055	914.41	1300.5	0.57
318.15 K, x1 = 0.5051	946.27	1325	0.67
318.15 K, x1 = 0.6001	974.52	1346.9	0.79
318.15 K, x1 = 0.7006	1002.73	1371.2	0.94
318.15 K, x1 = 0.8072	1030.38	1393.5	1.1
318.15 K, x1 = 0.8947	1052.04	1413.8	1.24
318.15 K, x1 = 1	1075.6	1423.3	1.41
323.15 K, x1 = 0.0995	793.34	1202.4	0.34
323.15 K, x1 = 0.2061	836.19	1228.6	0.4
323.15 K, x1 = 0.2936	869.91	1254.3	0.45
323.15 K, x1 = 0.4055	909.18	1282.7	0.54
323.15 K, x1 = 0.5051	941.1	1307.6	0.63
323.15 K, x1 = 0.6001	969.42	1329.7	0.75
323.15 K, x1 = 0.7006	997.71	1354.2	0.87
323.15 K, x1 = 0.8072	1025.37	1376.8	1.03
323.15 K, x1 = 0.8947	1047.05	1397.2	1.15
323.15 K, x1 = 1	1070.66	1406.7	1.3
